How the values were obtained:
[1] = system: middle cerebral artery occlusion model rats; assay: Neuroprotective effect in middle cerebral artery occlusion model (MCAo), TTC staining of brain slices; type: in vivo, Sprague-Dawley (SD) rats; conditions: intravenous right after ischemia induction: Clinoleic20% 200 mg/kg, SMOFlipid20% 500 mg/kg, oleic acid 100 mg/kg, sodium oleate solution 3 mg/kg, TTC staining 24 hours after reperfusion
Experimental: 8 week-old adult male Sprague-Dawley (SD) rats, obtained from Samtako (Korea), weighing 300 g were kept in an environment to adapt to the experimental environment while providing enough feed and water. After one week of adaptation period, the animals were used for the following experiments.
In detail, a nylon suture (4-0, 22 mm) was prepared by silicone coating about 5-8 mm of the end of the suture to have 0.36 mm of diameter, and was used for experiment. The rats prepared in Experimental Example 1.1 were anesthetized with 5% of isoflurane in a mixture of gas (i.e. 70% N2O and 30% O2). A syringe was inserted in one side for blood collection and a probe was inserted in the other side to measure blood pressure. Then the blood glucose level and the blood gas level in the collected blood were measured.
Through midline neck incision, right carotid artery and external carotid artery (ECA), which are branches of external carotid artery, were separated. […]
24 hours after the reperfusion, the animals were sacrificed by cervical spine dislocation. […] The files were stored in a computer, and the infarct area (%) in each tissue slice was calculated according to the following equation 1 by using an analysis program (i.e. Optimas 6.5, Bioscan). The adjusted volume of the infarct area was calculated through following Equation 2. […]

[2] = system: middle cerebral artery occlusion model rats; assay: Safety evaluation: death rate of experimental animals in the middle cerebral artery occlusion model; type: in vivo, Sprague-Dawley (SD) rats; conditions: MCAo rats, from the time of administration until sacrifice; intravenous: oleic acid 100 mg/kg, sodium oleate solution 3 mg/kg, Clinoleic20% 200 mg/kg, SMOFlipid20% 500 mg/kg
Experimental: Right after degenerative brain disease induction, death rate was calculated by counting number of dead animals in every group from the time of administration until they were sacrificed.

[3] = system: erythroclasis (hemolysis); conditions: cited from earlier work
[4] = system: transient local cerebral ischemia rat model; conditions: cited from earlier work

SMILES	TTC-unstained area (neuronal cell death) of brain slices compared to the control group [1]	Death Rate (%) [2]	Number of Dead Animals [2]	erythroclasis (hemolysis) in an in vitro test [3]	protective / neuroprotective efficacy [4]
CCCCCCCC/C=C\CCCCCCCC(=O)[O-].[Na+] [Sodium Oleate, sodium oleate]	less TTC-unstained area	21.6%	8	–	–
CCCCCCCC/C=C\CCCCCCCC(=O)O [Oleic Acid, oleic acid]	less TTC-unstained area	18.1%	21	incurs erythroclasis (hemolysis)	superior neuroprotective efficacy
